Measured values as given in US11326207B2, “Sequencing using non-natural nucleotides” (Ultima Genomics, Inc., priority 2017, dated 2022).

Test system: Bst DNA polymerase v.2.0
Assay: Flow cytometry assay: tolerance of dye-labeled dUTP* compared to dUTP analogs (Example 7)
Format: biochemical
Settings: for Tolerance: tolerance of dUTP* compared to the named dUTP^0
Description: A solution of biotinylated template (2 microliters (μL) of 100 μM) and dye-labeled primer (4 μL of 100 μM) were combined in annealing buffer (40 μL; Tris (10 millimolar (mM)), EDTA (1 mM), NaCl (100 mM)). The resulting solution was heated to 95° C. and allowed to slowly cool to room temperature. A portion of this solution (8 μL) was mixed with streptavidin-labeled magnetic beads (4 μL of Invitrogen Dynabeads™ MyOne™ Streptavidin C1, 10 milligrams/milliliter (mg/mL); washed and eluant removed) and 2× bead wash buffer (8 μL; 10 mM Tris, pH 7.5, 1 mM EDTA, 2 M NaCl, 0.01% Triton X-100). After washing with TET solution (10 mM Tris, 1 mM EDTA, 0.05% Triton X-100) the beads were treated with Bst DNA polymerase v.2.0 (8 μL of 8 units (U)/μL; New England Biolabs) for five minutes. The excess enzyme was removed by washing with TET and the beads were suspended in 1×DNA polymerase buffer solution (20 mM Tris, pH 8, 10 mM NaCl, 2 mM MgCl2, 0.01% Triton X-100). The sequence of the biotinylated template was /52 Bio//iSp18/[…] […] (SEQ ID NO: 12), where “5” is indicative of the 5′-end of the oligo, 2-Bio indicates dual biotin, and iSP18 indicates a PEG spacer. […] […] (SEQ ID NO: 13), where “5” indicates the 5′-end of the oligo and JOE indicates a fluorescent dye attached to the oligo.
Next, a portion of the suspended magnetic beads (10 μL) were removed and placed in a PCR tube. A solution of nucleotides (10 μL) was added to the tube and the tube incubated for 40 seconds (s) at 50° C. The enzyme reaction was stopped with the addition of 5 μL of 50 mM EDTA. The beads were washed with 2×100 μL TET and resuspended in 20 μL TET. A portion of the bead solution (1 μL) was added to TE (200 μL) and the beads examined for red fluorescence on a flow cytometer (BD Accuri™, APC channel). The eluant of the remaining beads was removed and 40 μL of 95:5 formamide:10 mM EDTA was added to the beads. A portion of the formamide solution (1 μL) was added to 40 μL 95:5 formamide EDTA. The solutions were examined by capillary electrophoresis (CE) on an ABI 3730 instrument and the peaks identified and quantitated by peak height. The experimental protocol is summarized schematically in FIG. 2.
Tolerance was measured at two molar fractions, […] and 0.05, for each of the four dUTP analogs.

## Cc1cn([C@H]2C[C@H](O)[C@@H](COP(=O)(O)OP(=O)(O)OP(=O)(O)O)O2)c(=O)[nH]c1=O [TTP, thymidine triphosphate, reference compound]
Molar fraction dUTP* 0.05
  Apparent fraction: 0.058
  Tolerance: 1.2
Molar fraction dUTP* 0.05, rest the named dUTP^0
  Red signal: 2,900
Molar fraction dUTP* 0.5
  Apparent fraction: 0.42
  Tolerance: 0.8
Molar fraction dUTP* 0.5, rest the named dUTP^0
  Red signal: 21,000
